# Reference: patent publication US20260274833A1 (NiKang Therapeutics, Inc., priority 2022, published 2026)
# Biological target: T1, CDK2 (Homo sapiens, UniProt P24941)
# T1 construct: endogenous in cells; host or cells: OVCAR3 cells
# Assay: Phospho-RB measurement in OVCAR3 cells (HTRF phospho-RB cellular kit)
# Assay type: cell-based
# Conditions: inhibition of RB phosphorylation at S807/811 (HTRF, TR-FRET ratio 665/620), 24 h compound treatment, 0.3 to 10,000 nM
# Outline: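 IC50 came from a four-parameter logistic fit of the DMSO-normalized TR-FRET ratio (665/620 nm). That ratio reflects RB phosphorylation at S807/811, read with an HTRF antibody pair 4 h after adding lysate at room temperature.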
row,SMILES,IC50
1,"CS(=O)(=O)C1CCC(Nc2nccc(-c3sc(C45CC(C(F)(F)F)(C4)C5)nc3-c3cccc(NS(=O)(=O)N4Cc5cccc(C(F)F)c5C4)c3F)n2)CC1 (stereo not shown) [Example 58, 4-(difluoromethyl)-N-(2-fluoro-3-(5-(2-(((1r,4r)-4-(methylsulfonyl)cyclohexyl)-amino)pyrimidin-4-yl)-2-(3-(trifluoromethyl)-bicyclo[1.1.1]pentan-1-yl)thiazol-4-yl)phenyl)-isoindoline-2-sulfonamide]",285 nM
2,"N#Cc1ccc2c(c1)N(S(=O)(=O)Nc1cccc(-c3nc(C45CC(C4)C5)sc3-c3ccnc(N[C@H]4C[C@@H]5CS(=O)(=O)C[C@@H]5C4)n3)c1F)CC2 [Example 59, N-(3-(2-(bicyclo [1.1.1]pentan-1-yl)-5-(2-(((3aR,5s,6aS)-2,2-dioxidohexahydro-1H-cyclopenta[c]thiophen-5-yl)amino)-pyrimidin-4-yl)thiazol-4-yl)-2-fluorophenyl)-6-cyanoindoline-1-sulfonamide]",53.3 nM
3,"CC1CCN(S(=O)(=O)Nc2cccc(-c3nc(C(C)(C)C)sc3-c3ccnc(NC4CCN(S(C)(=O)=O)CC4)n3)c2F)CC1 [Example 63, N-(3-(2-(tert-butyl)-5-(2-((1-(methylsulfonyl)-piperidin-4-yl)amino)-pyrimidin-4-yl)thiazol-4-yl)-2-fluoro-phenyl)-4-methylpiperidine-1-sulfonamide]",679 nM
4,"CC(C)(C)c1nc(-c2cccc(NS(=O)(=O)N3CCN(c4ccccc4)CC3)c2F)c(-c2ccnc(NC3CCN(S(C)(=O)=O)CC3)n2)s1 [Example 64, N-(3-(2-(tert-butyl)-5-(2-((1-(methylsulfonyl)-piperidin-4-yl)amino)-pyrimidin-4-yl)thiazol-4-yl)-2-fluoro-phenyl)-4-phenylpiperazine-1-sulfonamide]",735 nM
5,"CC(C)(C)c1nc(-c2cccc(NS(=O)(=O)N3CCCCC3c3ccccc3)c2F)c(-c2ccnc(NC3CCN(S(C)(=O)=O)CC3)n2)s1 (stereo not shown) [Example 67, N-(3-(2-(tert-butyl)-5-(2-((1-(methylsulfonyl)-piperidin-4-yl)amino)-pyrimidin-4-yl)thiazol-4-yl)-2-fluoro-phenyl)-2-phenylpiperidine-1-sulfonamide]",8260 nM

# Other lines, results leading:
row,IC50,SMILES
1,494 nM,"CS(=O)(=O)[C@H]1CC[C@H](Nc2nccc(-c3sc(C45CC(C(F)(F)F)(C4)C5)nc3-c3cccc(NS(=O)(=O)N4Cc5ccccc5C4)c3F)n2)CC1 [Example 57, N-(2-fluoro-3-(5-(2-(((1r,4r)-4-(methylsulfonyl)cyclohexyl)amino)-pyrimidin-4-yl)-2-(3-(trifluoromethyl)-bicyclo[1.1.1]-pentan-1-yl)thiazol-4-yl)phenyl) isoindoline-2-sulfonamide]"
2,3170 nM,"CC1CCCN(S(=O)(=O)Nc2cccc(-c3nc(C(C)(C)C)sc3-c3ccnc(NC4CCN(S(C)(=O)=O)CC4)n3)c2F)C1 (stereo not shown) [Example 62, N-(3-(2-(tert-butyl)-5-(2-((1-(methylsulfonyl)-piperidin-4-yl)amino)-pyrimidin-4-yl)thiazol-4-yl)-2-fluoro-phenyl)-3-methylpiperidine-1-sulfonamide]"
3,588 nM,"CC(C)(C)c1nc(-c2cccc(NS(=O)(=O)N3CCC(Oc4ccccc4)CC3)c2F)c(-c2ccnc(NC3CCN(S(C)(=O)=O)CC3)n2)s1 [Example 65, N-(3-(2-(tert-butyl)-5-(2-((1-(methylsulfonyl)-piperidin-4-yl)amino)-pyrimidin-4-yl)thiazol-4-yl)-2-fluoro-phenyl)-4-phenoxypiperidine-1-sulfonamide]"
4,> 5000 nM,"CC1CCCCN1S(=O)(=O)Nc1cccc(-c2nc(C(C)(C)C)sc2-c2ccnc(NC3CCN(S(C)(=O)=O)CC3)n2)c1F (stereo not shown) [Example 66, N-(3-(2-(tert-butyl)-5-(2-((1-(methylsulfonyl)-piperidin-4-yl)amino)-pyrimidin-4-yl)thiazol-4-yl)-2-fluoro-phenyl)-2-methylpiperidine-1-sulfonamide]"
5,88.9 nM,CC(C)(C)c1nc(-c2cccc(NS(=O)(=O)N3Cc4ccccc4C3)c2F)c(-c2ccnc(NC3CCN(S(C)(=O)=O)CC3)n2)s1 [Example 69]
